Earlier results in US8883820B2, “Triazole derivatives as kinase inhibitors” (Cellzome Ltd., priority 2006, dated 2014).

Legend:
[1] = test system: collagen II-antibody-induced arthritis; conditions: oral, wildtype mice
[2] = test system: lymphocyte-dependent rheumatoid arthritis induced by direct collagen II injection; conditions: oral
[3] = test system: systemic lupus erythematosus (SLE); conditions: intraperitoneal administration

O=C1NC(=O)/C(=C\c2ccc3nccnc3c2)S1 [AS-605240]
clinical and histologic signs of collagen II-antibody-induced arthritis [1]: reduced clinical and histologic signs
joint inflammation and damage [2]: decreased joint inflammation and damage
CD4+ T-cell populations [3]: reduced CD4+ T-cell populations
glomerulonephritis [3]: reduced glomerulonephritis
life span [3]: prolonged life span

Nc1nc(N)c2nc(-c3cccc(O)c3)c(-c3cccc(O)c3)nc2n1 [TG100-115]
cardioprotection (myocardial infarction; dosing after myocardial reperfusion (up to 3 hours after)): provided cardioprotection
edema and inflammation in response to multiple mediators (myocardial infarction; in vivo): potently inhibits
